Results published in patent US20240228468A1, “N-(6-((OCTAHYDROCYCLOPENTA[C]PYRROL-5-YI)AMINO)PYRIDAZIN-3-YL)PHENYL)CARBOXAMIDE AND (6- ((OCTAHYDROCYCLOPENTA[C]PYRROL-5-YL)AMINO)PYRIDAZIN-3-YL)BENZAMIDE DERIVATIVES AS MACHR M4 ANTAGONISTS FOR THE TREATMENT OF NEURODEGENERATIVE DISORDERS” (Vanderbilt University, priority 2021, published 2024).
Like-named read-outs stand apart in the source and are kept apart here.

Molecular target: T1, Human M4 (Homo sapiens, UniProt P08173)
T1 construct: expressed in transfected cells; host or cells: CHO-K1 (ATCC), co-transfected with chimeric G protein Gqi5
T1 sequence (P08173 1-479): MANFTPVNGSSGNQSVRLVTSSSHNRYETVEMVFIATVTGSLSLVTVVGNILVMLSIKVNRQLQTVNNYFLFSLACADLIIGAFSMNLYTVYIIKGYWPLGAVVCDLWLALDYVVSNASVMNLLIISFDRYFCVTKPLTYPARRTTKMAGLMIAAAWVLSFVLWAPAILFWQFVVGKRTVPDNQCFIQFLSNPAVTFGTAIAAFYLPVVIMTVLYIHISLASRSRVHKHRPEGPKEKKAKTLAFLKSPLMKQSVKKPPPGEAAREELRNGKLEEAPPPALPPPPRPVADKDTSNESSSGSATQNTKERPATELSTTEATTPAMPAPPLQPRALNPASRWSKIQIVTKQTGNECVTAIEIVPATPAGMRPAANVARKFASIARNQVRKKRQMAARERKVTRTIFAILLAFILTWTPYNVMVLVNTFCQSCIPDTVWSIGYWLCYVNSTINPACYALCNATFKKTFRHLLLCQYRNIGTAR
Test: mAChR M4 cell-based functional assay (calcium flux, antagonism of EC80 acetylcholine response)
Settings: for IC50: concentration-dependent decrease of the response elicited by an EC80 concentration of acetylcholine
Outline: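 CHO-K1 cells stably expressing human M4 with chimeric Gqi5, Fluo-4 loaded; calcium flux read on FDSS. Compound (10-point, 1:3 series) added first, then EC20 acetylcholine at 143 s and EC80 at 268 s. IC50 from concentration-dependent decrease of EC80 response, four-parameter logistic fit.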

SMILES	remaining activity at 30 µM (CHO-K1, read-out: Human M4 Emin (% ACh maximum at 30 μM))	IC50 (M4/Gqi5/CHO-K1 cells)	Human M4 Emin (% ACh maximum at 30 μM) (M4/Gqi5/CHO-K1 cells, % ACh maximum at 30 μM)	remaining activity at 30 µM (M4/Gqi5/CHO-K1 cells, % ACh maximum at 30 μM, read-out: Human M4 Emin (% ACh maximum at 30 μM))
CS(=O)(=O)CC(=O)Nc1cccc(-c2ccc(N[C@H]3C[C@@H]4CN(CC5CCOCC5)C[C@@H]4C3)nn2)c1 [Compound A17, 2-(Methylsulfonyl)-N-(3-(6-(((3aR,5s,6aS)-2-((tetrahydro-2H-pyran-4-yl)methyl)octahydrocyclopenta[c]pyrrol-5-yl)amino)pyridazin-3-yl)phenyl)acetamide]	3%	2.8 nM	–	–
[2H]C([2H])([2H])C(=O)Nc1ccc(-c2ccc(N[C@H]3C[C@@H]4CN(CC5CCOCC5)C[C@@H]4C3)nn2)cc1 (single isomer, unassigned) [Compound B5]	–	2.4 nM	3%	–
O=C(Nc1cc(F)c(F)c(-c2ccc(N[C@H]3C[C@@H]4CN(CC5CCOCC5)C[C@@H]4C3)nn2)c1)C1(C(F)(F)F)CC1 [Compound A11, N-(3,4-difluoro-5-(6-(((3aR,5s,6aS)-2-((tetrahydro-2H-pyran-4-yl)methyl)octahydrocyclopenta[c]pyrrol-5-yl)amino)pyridazin-3-yl)phenyl)-1-(trifluoromethyl)cyclopropane-1-carboxamide]	–	66 nM	–	3%
